The values below come from US12391675B2, “NLRP3 modulators” (INNATE TUMOR IMMUNITY, INC., priority 2019, dated 2025).

pEC50: −log10 of the molar value.

Usually pEC50 stands for −log10 of the EC50, conventionally taken in molar units. A lower pEC50 goes with a high EC50.

In the assay the target is T1, NLRP3 (Homo sapiens, UniProt Q96P20).
T1 construct: host or cells: PMA-differentiated THP-1 cells
T1 sequence (Q96P20 whole entry): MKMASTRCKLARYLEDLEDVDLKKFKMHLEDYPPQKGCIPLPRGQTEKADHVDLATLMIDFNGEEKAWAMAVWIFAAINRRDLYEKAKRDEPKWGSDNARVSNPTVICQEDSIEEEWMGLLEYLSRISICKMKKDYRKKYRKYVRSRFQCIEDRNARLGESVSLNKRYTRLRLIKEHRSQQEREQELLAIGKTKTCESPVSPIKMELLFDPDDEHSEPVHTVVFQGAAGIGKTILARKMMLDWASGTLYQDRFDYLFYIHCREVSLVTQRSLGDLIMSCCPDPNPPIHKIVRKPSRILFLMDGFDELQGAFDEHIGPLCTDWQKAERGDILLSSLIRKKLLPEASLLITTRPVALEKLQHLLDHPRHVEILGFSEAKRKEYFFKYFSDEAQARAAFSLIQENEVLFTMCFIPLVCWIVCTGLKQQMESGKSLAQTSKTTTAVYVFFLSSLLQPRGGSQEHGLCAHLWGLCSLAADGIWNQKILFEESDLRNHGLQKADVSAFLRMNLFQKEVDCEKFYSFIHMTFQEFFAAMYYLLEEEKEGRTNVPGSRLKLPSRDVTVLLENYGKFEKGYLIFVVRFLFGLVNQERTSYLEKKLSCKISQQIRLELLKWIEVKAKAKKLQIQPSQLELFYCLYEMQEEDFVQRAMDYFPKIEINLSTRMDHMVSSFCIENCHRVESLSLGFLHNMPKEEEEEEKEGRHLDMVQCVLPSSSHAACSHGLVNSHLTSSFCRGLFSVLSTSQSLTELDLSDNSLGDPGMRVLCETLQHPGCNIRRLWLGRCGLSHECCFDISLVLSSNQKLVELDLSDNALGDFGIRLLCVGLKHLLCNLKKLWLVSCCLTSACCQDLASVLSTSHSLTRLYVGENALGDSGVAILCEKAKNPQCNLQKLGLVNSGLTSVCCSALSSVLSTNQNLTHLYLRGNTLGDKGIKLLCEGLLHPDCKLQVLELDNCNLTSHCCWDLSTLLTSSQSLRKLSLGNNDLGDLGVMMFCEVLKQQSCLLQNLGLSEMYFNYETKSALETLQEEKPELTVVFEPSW
Put plainly: Measurement of IL-1β production in PMA-differentiated THP-1 cells (NLRP3 hIL1B EC50). In kind it is cell-based. The protocol:
Measurement of IL-1β Production in PMA-Differentiated THP-1 Cells
THP-1 cells were purchased from the American Type Culture Collection and sub-cultured according to instructions from the supplier. Prior to experiments, cells were cultured in RPMI 1640 containing 10% heat inactivated FBS, penicillin (100 units/ml) and streptomycin (100 μg/ml), and maintained in log phase prior to experimental setup. Prior to the experiment THP-1 were treated with PMA (Phorbol 12-myristate 13-acetate) (10 μg/ml) for 24 hours. The day of the experiment the media was removed and attaching cells were treated with trypsin for 2 minutes, cells were then collected, washed with PBS (phosphate buffer saline), spin down, resuspended in 2% heat inactivated FBS with RPMI at a concentration of 1×10^6 cells/ml, and 100 μl was plated in a 96 well plate. Compounds were dissolved in dimethyl sulfoxide (DMSO) and added to the culture medium to achieve desired concentration (e.g. 100, 30, 10, 3, 1, 0.3 or 0.1 μM). Cells were incubated with compounds for 4 hours. Cell free supernatant was collected and the production of IL-1β was evaluated by ELISA. A vehicle only control was run concurrently with each experiment. Final DMSO concentration was 1%.
Measurement of IL-1β Production in PMA-Differentiated THP-1 Cells (Alternative Procedure)
THP-1 cells were purchased from the American Type Culture Collection and sub-cultured according to instructions from the supplier. Prior to experiments, cells were cultured in RPMI 1640 containing 10% heat inactivated FBS, penicillin (100 units/ml), streptomycin (100 μg/ml), HEPES (10 mM) and sodium pyruvate (1 mM) and maintained in log phase prior to experimental setup. Prior to the experiment, THP-1 cells were treated with PMA (Phorbol 12-myristate 13-acetate) (20 μg/ml) overnight. The day of the experiment, the media was removed and attached cells were treated with trypsin for 2 minutes, cells were then collected, washed with PBS (phosphate buffer saline), pelleted by centrifugation and resuspended in 2% heat inactivated FBS with RPMI at a concentration of 50,000 cells/well in a 384 well plate. Cell free supernatant was collected and the production of IL-1β was evaluated by ELISA. Compounds were dissolved in dimethyl sulfoxide (DMSO) and added to the culture medium to achieve desired concentration (e.g. 100, 30, 10, 3, 1, 0.3 or 0.1 μM). Cells were incubated with compounds for 2 hours. A vehicle only control was run concurrently with each experiment. Final DMSO concentration was 1%.
Measurement of IL-1β Production—hTRF Protocol (Second Alternative Procedure)
Serial dilutions of compounds in DMSO were added to low volume 384 well plates at 100 nl/well using an ECHO 550 acoustic dispenser (Labcyte) to achieve final starting concentration of 10 μM in assay.
THP-1 cells in RPMI (Gibco, 11875) media with 10% FBS at a density of 1×10^6 cell/ml in a T175 flask were treated with a final concentration of phorbol 12-myristate 13-acetate (PMA) (Sigma, P1585) of 50 ng/ml overnight at 37° C. at 5% CO2 for differentiation. Cells were harvested the next day after rinsing well wth dPBS using 0.5% trypsin. A cell solution was prepared of 1×10^6 cells/ml for 50,000 cells in 50 μl/well in RPMI media with 2% FBS. Cells were plated using a multichannel pipette onto the compound dilutions in Greiner, 384 well, black clear bottom tissue culture treated plates (781090). The plates were incubated in 37° C. incubator at 5% CO2 for 2 hours.
After the 2 hour incubation, the cell plates were spun in the centrifuge for 5 minutes at 1200 rpm. Using the Felix (CyBio), 8 μl of the supernatant was transferred to 384 well, low volume, white proxy plates. (Perkin Elmer, 6008230). A human IL1beta hTRF kit was used to analyze the supernatant (CISBIO, 62HIL1BPEG). The kit instructions were followed for preparing the IL1Beta standard curve and then the antibodies from the kit were diluted 1:40 rather than 1:20 as kit instructed. […]
Molecule `Nc1cc(NC2CC3(CC(O)C3)C2)c2ccc(-c3ccn[nH]3)cc2n1` (stereo not drawn) [Example 21] had a pEC50 of 6.06. The result for `Nc1nc(NC2CC3(CC3)C2)c2ccc(-c3cc[nH]n3)cc2n1` [Example 37] reads 6.52; that for `Nc1nc(N[C@@H]2C[C@H]3C[C@H](O)[C@@H]2O3)c2ccc(-c3ccn[nH]3)cc2n1` (racemic) [Example 31B, rac-(1R,2S,4S,6R)-6-((2-amino-7-(1H-pyrazol-5-yl)quinazolin-4-yl)amino)-7-oxabicyclo[2.2.1]heptan-2-ol], 5.73; that for `Nc1nc(N[C@@H]2[C@@H]3COC[C@@H]32)c2ccc(-c3ccn[nH]3)cc2n1` [Example 6], 6.51. `CCN1CCC2(CCN(c3nc(N)nc4cc(-c5cc[nH]n5)ccc34)C2)C1` (stereo not drawn) [Example 38] had a pEC50 of 5.59. The molecule `Nc1nc(N[C@H]2C[C@@H]3C[C@H]2C[C@H]3O)c2ccc(-c3ccn[nH]3)cc2n1` (racemic) [Example 42] showed a pEC50 of 6.13. The molecule `Nc1nc(N[C@H]2C[C@H]3O[C@@H]2C[C@@H]3O)c2ccc(-c3ccn[nH]3)cc2n1` (racemic) [Example 31A, rac-(1R,2S,4R,5S)-5-((2-amino-7-(1H-pyrazol-5-yl)quinazolin-4-yl)amino)-7-oxabicyclo[2.2.1]heptan-2-ol] gave a pEC50 of 5.92. Consider `COC(=O)C12CCC(CNc3cc(N)nc4cc(-c5cc[nH]n5)ccc34)(CC1)CC2` [Example 50, methyl 4-(((2-amino-7-(1H-pyrazol-3-yl)quinolin-4-yl)amino)methyl)bicyclo[2.2.2]octane-1-carboxylate], for which the pEC50 was 5.76. `CC(C)(C)OC(=O)N1CCC2(CC1)CC2Nc1nc(N)nc2cc(-c3cc[nH]n3)ccc12` (racemic) [Example 27, (rac)-tert-butyl 1-((2-amino-7-(1H-pyrazol-3-yl)quinazolin-4-yl)amino)-6-azaspiro[2.5]octane-6-carboxylate] showed a pEC50 of 6.41. The result for `Nc1nc(N[C@H]2C[C@@H]3C[C@H]2[C@@H](O)C3)c2ccc(-c3ccn[nH]3)cc2n1` (racemic) [Example 44, rac-(1R,2S,4S,6S)-6-((2-amino-7-(1H-pyrazol-5-yl)quinazolin-4-yl)amino)bicyclo[2.2.1]heptan-2-ol] reads 5.63; that for `Nc1nc(N[C@@H]2C[C@@H]3CC[C@H]2O3)c2ccc(-c3ccn[nH]3)cc2n1` (racemic) [Example 29, rac-N4-((1R,2R,4S)-7-oxabicyclo[2.2.1]heptan-2-yl)-7-(1H-pyrazol-5-yl)quinazoline-2,4-diamine], 6.30; that for `Nc1cc(N[C@H]2[C@@H]3COC[C@@H]32)c2ccc(-c3ccn[nH]3)cc2n1` [Example 20], 6.96. In turn, `Nc1cc(N[C@@H]2C[C@H]3C[C@@H]2[C@@H](O)C3)c2ccc(-c3ccn[nH]3)cc2n1` (racemic) [Example 46, rac-(1S,2S,4R,6R)-6-((2-amino-7-(1H-pyrazol-5-yl)quinolin-4-yl)amino)bicyclo[2.2.1]heptan-2-ol] had a pEC50 of 5.88. Consider `Nc1nc(NC2CC3(CC(O)C3)C2)c2ccc(-c3ccn[nH]3)cc2n1` (stereo not drawn) [Example 3, 6-((2-amino-7-(1H-pyrazol-5-yl)quinazolin-4-yl)amino)spiro[3.3]heptan-2-ol], for which the pEC50 was 6.00.

`Nc1cc(NC2CC3(CC(O)C3)C2)c2ccc(-c3ccn[nH]3)cc2n1` (single isomer, unassigned) [Example 26A, (Sa)-6-(2-amino-7-(1H-pyrazol-5-yl)quinolin-4-ylamino)spiro[3.3]heptan-2-ol] showed a negative-log EC50 (pEC50) of 7.52.

In turn, `CC(C)(C)OC(=O)N1CCC2(CC1)CC2Nc1nc(N)nc2cc(-c3cc[nH]n3)ccc12` (single isomer, unassigned) [Example 28B] gave a negative-log EC50 (pEC50) of 6.11. As to `Nc1nc(N[C@H]2C[C@@H]3C[C@H]2C[C@H]3O)c2ccc(-c3ccn[nH]3)cc2n1` (single isomer, unassigned) [Example 43B], the pEC50 is 5.95. Take `Nc1cc(N[C@H]2C[C@@H]3C[C@@H](O)[C@H]2O3)c2ccc(-c3ccn[nH]3)cc2n1` (single isomer, unassigned) [Example 32B]: the pEC50 was 6.60. In the case of `Nc1cc(N[C@H]2[C@@H]3CC[C@@H](C3)[C@H]2CO)c2ccc(-c3ccn[nH]3)cc2n1` (racemic) [Example 17, rac-((1R,2S,3R,4S)-3-((2-amino-7-(1H-pyrazol-5-yl)quinolin-4-yl)amino)bicyclo[2.2.1]heptan-2-yl)methanol] it was 5.78; in that of `Nc1cc(N[C@H]2C3CCC(C3)[C@H]2CO)c2ccc(-c3ccn[nH]3)cc2n1` (single isomer, unassigned) [Example 18], 5.52. The result for `Nc1cc(NCC23CC(CO)(C2)C3)c2ccc(-c3ccn[nH]3)cc2n1` [Example 52, (3-(((2-amino-7-(1H-pyrazol-5-yl)quinolin-4-yl)amino)methyl)bicyclo[1.1.1]pentan-1-yl)methanol] reads 6.01. In the case of `Nc1nc(N[C@@H]2C[C@H]3C[C@@H](O)C[C@H]3C2)c2ccc(-c3ccn[nH]3)cc2n1` [Example 2, (2r,3aR,5r,6aS)-5-((2-amino-7-(1H-pyrazol-5-yl)quinazolin-4-yl)amino)octahydropentalen-2-ol] it was 6.22; in that of `Nc1cc(N[C@@H]2C[C@@H]3CC[C@H]2O3)c2ccc(-c3ccn[nH]3)cc2n1` (racemic) [Example 30, rac-N4-((1R,2R,4S)-7-oxabicyclo[2.2.1]heptan-2-yl)-7-(1H-pyrazol-5-yl)quinoline-2,4-diamine], 6.19; in that of `Nc1nc(N[C@@H]2C[C@H]3CC[C@]2(CO)O3)c2ccc(-c3ccn[nH]3)cc2n1` (racemic) [Example 8], 5.43. `Nc1nc(NC23CC(C2)C3)c2ccc(-c3cc[nH]n3)cc2n1` [Example 13] had a pEC50 of 6.70. In the case of `Nc1cc(N[C@H]2C[C@@H]3CC[C@H]2O3)c2ccc(-c3ccn[nH]3)cc2n1` (racemic) [Example 15, rac-N4-((1R,2S,4S)-7-oxabicyclo[2.2.1]heptan-2-yl)-7-(1H-pyrazol-5-yl)quinoline-2,4-diamine] it was 6.60; in that of `Nc1cc(N[C@@H]2C[C@H]3C[C@@H](O)C[C@H]3C2)c2ccc(-c3ccn[nH]3)cc2n1` [Example 14, (2r,3aR,5r,6aS)-5-((2-amino-7-(1H-pyrazol-5-yl)quinolin-4-yl)amino)octahydropentalen-2-ol], 6.19; in that of `Nc1nc(N2C[C@H]3C[C@@H]2CO3)c2ccc(-c3cc[nH]n3)cc2n1` (single isomer, unassigned) [Example 10], 5.80.

Molecule `Nc1nc(N[C@H]2CC3CC2[C@@H](O)C3)c2ccc(-c3ccn[nH]3)cc2n1` (mixture of isomers) [Example 40, rac-(2S,6S)-6-((2-amino-7-(1H-pyrazol-5-yl)quinazolin-4-yl)amino)bicyclo[2.2.1]heptan-2-ol] showed a pEC50 of 6.66. In the case of `Nc1nc(NC2CC23CC3)c2ccc(-c3cc[nH]n3)cc2n1` (single isomer, unassigned) [Example 36A], the pEC50 is 7.07. The molecule `Nc1nc(NC2CC3CC(O)C2C3)c2ccc(-c3ccn[nH]3)cc2n1` (single isomer, unassigned) [Example 41B] gave a pEC50 of 6.02. `Nc1cc(NC23CC(C2)C3)c2ccc(-c3ccn[nH]3)cc2n1` [Example 19] had a pEC50 of 6.49. Turning to `Nc1cc(NCC23CCC(CC2)OC3)c2ccc(-c3ccsc3)cc2n1` [Example 49, N4-((2-oxabicyclo[2.2.2]octan-4-yl)methyl)-7-(thiophen-3-yl)quinoline-2,4-diamine], the pEC50 is 6.27.
